According to patent US10350271B2, “Lipidated peptides for lowering blood glucose” (USTAV ORGANICKE CHEMIE A BIOCHEMIE AKADEMIE VED CR, V.V.I., priority 2014, dated 2019):
Square brackets hold non-standard residues; d marks the D form. Peptide text beside a SMILES is read from it. * marks the point of attachment. Phe(4-NO2) = N[C@@H](Cc1ccc([N+](=O)[O-])cc1)C(=O)O; Phe(3,4-Cl2) = N[C@@H](Cc1ccc(Cl)c(Cl)c1)C(=O)O; 1Nal = N[C@@H](Cc1cccc2ccccc12)C(=O)O; Stearoyl = CCCCCCCCCCCCCCCCCC(=O)*; Palmitoyl = CCCCCCCCCCCCCCCC(=O)*; Myristoyl = CCCCCCCCCCCCCC(=O)*; Nle = CCCC[C@H](N)C(=O)O

How the values were obtained:
C57BL/6 mice = test: Food intake in fasted mice after SC injection; type: in vivo; settings: 5 mg/kg SC, 45 min after injection
How it was run: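 Saline, PrRP or a lipidated analog was injected SC (1-10 mg/kg) after a 17 h fast with free water, animals housed singly.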

[1] = biological target: T1, human PrRP receptor GPR10 (Homo sapiens, UniProt P49683); test: Competitive binding in CHO cells transfected with human GPR10 (human 125I-PrRP31); settings: for % of PrRP31, GPR10 human receptor transfected in CHO cells: affinity relative to PrRP31; for Ki: CHO cells, human 125I-PrRP31, read-out: Ki, GPR10 human receptor transfected in CHO cells
T1 construct: host or cells: CHO cells
T1 sequence (P49683 1-370): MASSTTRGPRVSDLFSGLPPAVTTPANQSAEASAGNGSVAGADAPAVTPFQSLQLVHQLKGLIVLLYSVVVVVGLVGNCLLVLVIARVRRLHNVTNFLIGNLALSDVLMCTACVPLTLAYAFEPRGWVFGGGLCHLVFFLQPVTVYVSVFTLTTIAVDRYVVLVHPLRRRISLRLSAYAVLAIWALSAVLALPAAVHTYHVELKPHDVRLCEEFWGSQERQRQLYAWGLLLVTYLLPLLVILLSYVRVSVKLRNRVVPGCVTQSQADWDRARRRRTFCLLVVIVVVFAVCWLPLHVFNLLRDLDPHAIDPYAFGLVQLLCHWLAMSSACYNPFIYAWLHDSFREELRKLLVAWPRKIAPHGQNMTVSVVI
How it was run: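 Values from one-site nonlinear regression of displacement curves: analogs (final 10^-11 to 10^-4 mol·l^-1) competed with 125I-PrRP31 (final 5×10^-11 mol·l^-1) on adherent human GPR10 CHO cells. Binding ran 1 h at room temperature, pH 7.4 buffer with NaCl, MgCl2, CaCl2, glucose, BSA; cell-bound radioactivity counted after NaOH lysis.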

rat PrRP receptor = biological target: T2, rat PrRP receptor (Rattus norvegicus, UniProt Q64121); test: Competitive binding in RC-4B/C rat pituitary cells (125I-rat PrRP31); settings: for % of PrRP31, RC-4B/C rat pituitary cells: affinity relative to PrRP31; for Ki: RC-4B/C cells, displacement of 125I-rat PrRP31, read-out: Ki, RC-4B/C rat pituitary cells ^25I-rat PrRP31
T2 construct: host or cells: RC-4B/C rat pituitary cell line
T2 sequence (Q64121 1-370): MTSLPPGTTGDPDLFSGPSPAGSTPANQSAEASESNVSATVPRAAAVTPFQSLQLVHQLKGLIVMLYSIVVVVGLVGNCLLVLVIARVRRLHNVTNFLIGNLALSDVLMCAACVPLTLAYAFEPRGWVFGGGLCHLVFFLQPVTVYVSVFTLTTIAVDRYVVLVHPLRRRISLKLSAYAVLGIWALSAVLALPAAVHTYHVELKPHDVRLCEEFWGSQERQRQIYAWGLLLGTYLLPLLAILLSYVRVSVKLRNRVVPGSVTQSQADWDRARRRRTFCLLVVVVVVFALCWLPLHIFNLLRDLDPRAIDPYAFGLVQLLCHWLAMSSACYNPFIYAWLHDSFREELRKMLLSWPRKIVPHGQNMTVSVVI
How it was run: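 Displacement of rat 125I-PrRP31 ([…]) by test analogs, 10^−11–10^−4 mol·l^−1, on whole RC-4B/C cells, 60 min RT. Bound counts measured by γ-counter in duplicate, ≥3 repeats, analyzed by nonlinear one-site binding regression.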

Structure (SMILES)	% of PrRP31, GPR10 human receptor transfected in CHO cells [1] [%]	% of PrRP31, RC-4B/C rat pituitary cells (rat PrRP receptor) [%]	Ki [1] [nM]	Ki (rat PrRP receptor) [nM]	Food intake in mice % of saline-treated group (C57BL/6 mice) [%]
CCCCCCCCCCCCCC(=O)N[C@@H](CO)C(=O)N[C@@H](CCCNC(=N)N)C(=O)N[C@@H](C)C(=O)N[C@@H](Cc1c[nH]cn1)C(=O)N[C@@H](CCC(N)=O)C(=O)N[C@@H](Cc1c[nH]cn1)C(=O)N[C@@H](CO)C(=O)N[C@@H](CCCC)C(=O)N[C@@H](CCC(=O)O)C(=O)N[C@H](C(=O)N[C@@H](CCCNC(=N)N)C(=O)N[C@H](C(=O)N1CCC[C@H]1C(=O)N[C@@H](CC(=O)O)C(=O)N[C@H](C(=O)N[C@@H](CC(N)=O)C(=O)N1CCC[C@H]1C(=O)N[C@@H](C)C(=O)N[C@@H](Cc1c[nH]c2ccccc12)C(=O)N[C@@H](Cc1ccc(O)cc1)C(=O)N[C@H](C(=O)NCC(=O)N[C@@H](CCCNC(=N)N)C(=O)NCC(=O)N[C@H](C(=O)N[C@@H](CCCNC(=N)N)C(=O)N1CCC[C@H]1C(=O)N[C@H](C(=O)NCC(=O)N[C@@H](CCCNC(=N)N)C(=O)N[C@@H](Cc1ccc(Cl)c(Cl)c1)C(N)=O)C(C)C)[C@@H](C)CC)[C@@H](C)O)[C@@H](C)CC)[C@@H](C)O)[C@@H](C)O [Analog 14] (Myristoyl-SRAHQHS[Nle]ETRTPDINPAWYTGRGIRPVGR[Phe(3,4-Cl2)]-NH2)	409	275	0.95 ± 0.33	1.79 ± 1.02	13
CCCCCCCCCCCCCCCC(=O)N[C@@H](CO)C(=O)N[C@@H](CCCNC(=N)N)C(=O)N[C@@H](C)C(=O)N[C@@H](Cc1c[nH]cn1)C(=O)N[C@@H](CCC(N)=O)C(=O)N[C@@H](Cc1c[nH]cn1)C(=O)N[C@@H](CO)C(=O)N[C@@H](CCCC)C(=O)N[C@@H](CCC(=O)O)C(=O)N[C@H](C(=O)N[C@@H](CCCNC(=N)N)C(=O)N[C@H](C(=O)N1CCC[C@H]1C(=O)N[C@@H](CC(=O)O)C(=O)N[C@H](C(=O)N[C@@H](CC(N)=O)C(=O)N1CCC[C@H]1C(=O)N[C@@H](C)C(=O)N[C@@H](Cc1c[nH]c2ccccc12)C(=O)N[C@@H](Cc1ccc(O)cc1)C(=O)N[C@H](C(=O)NCC(=O)N[C@@H](CCCNC(=N)N)C(=O)NCC(=O)N[C@H](C(=O)N[C@@H](CCCNC(=N)N)C(=O)N1CCC[C@H]1C(=O)N[C@H](C(=O)NCC(=O)N[C@@H](CCCNC(=N)N)C(=O)N[C@@H](Cc1ccc(Cl)c(Cl)c1)C(N)=O)C(C)C)[C@@H](C)CC)[C@@H](C)O)[C@@H](C)CC)[C@@H](C)O)[C@@H](C)O [Analog 15] (Palmitoyl-SRAHQHS[Nle]ETRTPDINPAWYTGRGIRPVGR[Phe(3,4-Cl2)]-NH2)	370	379	1.05 ± 0.41	1.3 ± 0.29	5
CCCCCCCCCCCCCC(=O)N[C@@H](CO)C(=O)N[C@@H](Cc1c[nH]cn1)C(=O)N[C@@H](CCC(N)=O)C(=O)N[C@@H](CCCNC(=N)N)C(=O)N1CCC[C@H]1C(=O)N[C@@H](C)C(=O)N[C@@H](CC(=O)O)C(=O)N[C@H](C(=O)N[C@@H](Cc1c[nH]cn1)C(=O)N[C@@H](Cc1c[nH]c2ccccc12)C(=O)N[C@@H](Cc1ccc(O)cc1)C(=O)N1CCC[C@H]1C(=O)N[C@@H](CCCNC(=N)N)C(=O)NCC(=O)N[C@@H](CCCC)C(=O)N[C@@H](Cc1ccccc1)C(=O)N1CCC[C@H]1C(=O)N[C@H](C(=O)N[C@H](C(=O)NCC(=O)N[C@@H](CCCNC(=N)N)C(=O)N[C@H](C(=O)N[C@H](C(=O)N[C@@H](C)C(=O)N[C@@H](CCCNC(=N)N)C(=O)N[C@@H](CC(N)=O)C(=O)NCC(=O)N[C@@H](CCC(=O)O)C(=O)N[C@H](C(=O)N[C@@H](CO)C(=O)N[C@@H](CCCNC(=N)N)C(=O)O)C(C)C)[C@@H](C)O)[C@@H](C)CC)[C@@H](C)CC)[C@@H](C)O)[C@@H](C)O [Analog 20] (Myristoyl-SHQRPADTHWYPRG[Nle]FPTIGRITARNGEVSR-OH; C-terminus assumed)	1.5	4.6	262 ± 55.4	123 ± 16.1	100

Further lines, with some results ahead:

% of PrRP31, GPR10 human receptor transfected in CHO cells [1] [%]	% of PrRP31, RC-4B/C rat pituitary cells (rat PrRP receptor) [%]	Ki [1] [nM]	Ki (rat PrRP receptor) [nM]	Structure (SMILES)	Food intake in mice % of saline-treated group (C57BL/6 mice) [%]
7	514			CCCCCCCCCCCCCCCCCC(=O)N[C@@H](CO)C(=O)N[C@@H](CCCNC(=N)N)C(=O)N[C@@H](C)C(=O)N[C@@H](Cc1c[nH]cn1)C(=O)N[C@@H](CCC(N)=O)C(=O)N[C@@H](Cc1c[nH]cn1)C(=O)N[C@@H](CO)C(=O)N[C@@H](CCCC)C(=O)N[C@@H](CCC(=O)O)C(=O)N[C@H](C(=O)N[C@@H](CCCNC(=N)N)C(=O)N[C@H](C(=O)N1CCC[C@H]1C(=O)N[C@@H](CC(=O)O)C(=O)N[C@H](C(=O)N[C@@H](CC(N)=O)C(=O)N1CCC[C@H]1C(=O)N[C@@H](C)C(=O)N[C@@H](Cc1c[nH]c2ccccc12)C(=O)N[C@@H](Cc1ccc(O)cc1)C(=O)N[C@H](C(=O)NCC(=O)N[C@@H](CCCNC(=N)N)C(=O)NCC(=O)N[C@H](C(=O)N[C@@H](CCCNC(=N)N)C(=O)N1CCC[C@H]1C(=O)N[C@H](C(=O)NCC(=O)N[C@@H](CCCNC(=N)N)C(=O)N[C@@H](Cc1ccccc1)C(N)=O)C(C)C)[C@@H](C)CC)[C@@H](C)O)[C@@H](C)CC)[C@@H](C)O)[C@@H](C)O [Analog 9] (Stearoyl-SRAHQHS[Nle]ETRTPDINPAWYTGRGIRPVGRF-NH2)	3.5
91	111			CCCCCCCCCCCCCCCC(=O)N[C@@H](CO)C(=O)N[C@@H](CCCNC(=N)N)C(=O)N[C@@H](C)C(=O)N[C@@H](Cc1c[nH]cn1)C(=O)N[C@@H](CCC(N)=O)C(=O)N[C@@H](Cc1c[nH]cn1)C(=O)N[C@@H](CO)C(=O)N[C@@H](CCCC)C(=O)N[C@@H](CCC(=O)O)C(=O)N[C@H](C(=O)N[C@@H](CCCNC(=N)N)C(=O)N[C@H](C(=O)N1CCC[C@H]1C(=O)N[C@@H](CC(=O)O)C(=O)N[C@H](C(=O)N[C@@H](CC(N)=O)C(=O)N1CCC[C@H]1C(=O)N[C@@H](C)C(=O)N[C@@H](Cc1c[nH]c2ccccc12)C(=O)N[C@@H](Cc1ccc(O)cc1)C(=O)N[C@H](C(=O)NCC(=O)N[C@@H](CCCNC(=N)N)C(=O)NCC(=O)N[C@H](C(=O)N[C@@H](CCCNC(=N)N)C(=O)N1CCC[C@H]1C(=O)N[C@H](C(=O)NCC(=O)N[C@@H](CCCNC(=N)N)C(=O)N[C@@H](Cc1cccc2ccccc12)C(N)=O)C(C)C)[C@@H](C)CC)[C@@H](C)O)[C@@H](C)CC)[C@@H](C)O)[C@@H](C)O [Analog 12] (Palmitoyl-SRAHQHS[Nle]ETRTPDINPAWYTGRGIRPVGR[1Nal]-NH2)	13
505	850	0.77 ± 0.28	0.58 ± 0.1	CCCCCCCCCCCCCCCC(=O)N[C@@H](CO)C(=O)N[C@@H](CCCNC(=N)N)C(=O)N[C@@H](C)C(=O)N[C@@H](Cc1c[nH]cn1)C(=O)N[C@@H](CCC(N)=O)C(=O)N[C@@H](Cc1c[nH]cn1)C(=O)N[C@@H](CO)C(=O)N[C@@H](CCCC)C(=O)N[C@@H](CCC(=O)O)C(=O)N[C@H](C(=O)N[C@@H](CCCNC(=N)N)C(=O)N[C@H](C(=O)N1CCC[C@H]1C(=O)N[C@@H](CC(=O)O)C(=O)N[C@H](C(=O)N[C@@H](CC(N)=O)C(=O)N1CCC[C@H]1C(=O)N[C@@H](C)C(=O)N[C@@H](Cc1c[nH]c2ccccc12)C(=O)N[C@@H](Cc1ccc(O)cc1)C(=O)N[C@H](C(=O)NCC(=O)N[C@@H](CCCNC(=N)N)C(=O)NCC(=O)N[C@H](C(=O)N[C@@H](CCCNC(=N)N)C(=O)N1CCC[C@H]1C(=O)N[C@H](C(=O)NCC(=O)N[C@@H](CCCNC(=N)N)C(=O)N[C@@H](Cc1ccc([N+](=O)[O-])cc1)C(N)=O)C(C)C)[C@@H](C)CC)[C@@H](C)O)[C@@H](C)CC)[C@@H](C)O)[C@@H](C)O [Analog 18] (Palmitoyl-SRAHQHS[Nle]ETRTPDINPAWYTGRGIRPVGR[Phe(4-NO2)]-NH2)	0.7
